Where a name gives a salt, the structure may show the parent alone.
Assay: Solubility in water at 40° C. (visual or UV-spectrometry)
Type: physicochemical
Details: kept overnight, 500 ppm 4OH-TEMPO
Protocol: The solubility of the compounds of Formula (I) was determined visually or by UV-spectrometry. For each compound of Formula (I), three solutions were prepared at 40° C.: one solution at 30 wt %, one solution at 60 wt %, and one solution at 70 wt %. 500 ppm 4OH-TEMPO was included in all three solutions to prevent premature polymerisation. The solutions were kept in a water bath of 40° C. overnight and centrifuged prior inspection. UV spectra were recorded in a Cary™ 100 UV-visible spectrophotometer from Agilent Technologies using a 1 mm path length quartz cuvette.

| Solubility in water at 40° C. | Compound |
| --- | --- |
| >70 wt % | C=Cc1ccc(S(=O)(=O)[N-]S(=O)(=O)c2cccc(S(=O)(=O)[N-]S(=O)(=O)c3ccc(C=C)cc3)c2)cc1.[Li+].[Li+] [XL-2, 1,3-[N-(ethenylphenylsulphonyl)benzenesulphonamide], dilithium salt] |
| 56 wt % | C=Cc1ccc(S(=O)(=O)NS(=O)(=O)c2ccc(C=C)cc2)cc1 [XL-B, Benzenesulphonamide, 4-ethenyl-N-[(4-ethenylphenyl)sulphonyl]-, lithium salt] |
| >70 wt % | C=Cc1ccc(S(=O)(=O)NS(C)(=O)=O)c(C=C)c1 [XL-D, Benzenesulphonamide, 2,4-diethenyl-N-(methylsulphonyl)-, lithium salt] |

| Compound | Solubility in water at 40° C. |
| --- | --- |
| Divinylbenzenesulphonate, Sodium salt [DVBS-Na, reference compound] | 8 wt % |

— US12630502B2, “Compounds, compositions and polymer films” (Fujifilm Manufacturing Europe B.V., priority 2020, dated 2026)
